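Cells were grown in 96-well plates and exposed to each compound for 48 hours at five concentrations; endpoints were interpolated linearly between bracketing concentrations, or set to the highest concentration if not reached. GI50 marks 50% less growth. TGI marks complete inhibition of growth.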
Tests used:
Test in all cases: DTP human tumour cell line panel, 48 h
IGROV1 ovarian = system: IGROV1 ovarian
SR leukemia = system: SR leukemia
MALME-3M melanoma = system: MALME-3M melanoma
NCI-H460 lung = system: NCI-H460 lung
TK-10 renal = system: TK-10 renal
HOP-92 NSCLC = system: HOP-92 NSCLC
ACHN renal = system: ACHN renal
HOP-62 NSCLC = system: HOP-62 NSCLC
MOLT-4 leukemia = system: MOLT-4 leukemia
UO-31 renal = system: UO-31 renal

O=C(N[C@H](c1ccc(Cl)c(Cl)c1)C1CNC1)c1ccc2cnccc2c1
GI50 (IGROV1 ovarian): 1.93 µM
TGI (IGROV1 ovarian): 10.6 µM
GI50 (SR leukemia): 2.11 µM
TGI (SR leukemia): 10.8 µM
GI50 (MALME-3M melanoma): 3.06 µM
TGI (MALME-3M melanoma): 14.6 µM
GI50 (NCI-H460 lung): 2.68 µM
TGI (NCI-H460 lung): 15.4 µM
GI50 (TK-10 renal): 1.73 µM
TGI (TK-10 renal): 10.7 µM
GI50 (HOP-92 NSCLC): 0.966 µM
TGI (HOP-92 NSCLC): 5.91 µM
GI50 (ACHN renal): 6.11 µM
TGI (ACHN renal): 18.9 µM
GI50 (HOP-62 NSCLC): 4.34 µM
TGI (HOP-62 NSCLC): 16.7 µM
GI50 (MOLT-4 leukemia): 1.41 µM
TGI (MOLT-4 leukemia): 5.67 µM

Nc1nc(N)c2cc(CNc3ccc(Cl)c(Cl)c3)ccc2n1
GI50 (IGROV1 ovarian): 0.579 µM
TGI (IGROV1 ovarian): 1.92 µM
GI50 (SR leukemia): 0.445 µM
TGI (SR leukemia): 1.93 µM
GI50 (MALME-3M melanoma): 1.21 µM
TGI (MALME-3M melanoma): 2.77 µM
GI50 (NCI-H460 lung): 0.0609 µM
TGI (NCI-H460 lung): 1.32 µM
GI50 (TK-10 renal): 1.42 µM
TGI (TK-10 renal): 2.73 µM
GI50 (ACHN renal): 0.495 µM
TGI (ACHN renal): 1.71 µM
GI50 (HOP-62 NSCLC): 0.81 µM
TGI (HOP-62 NSCLC): 2.05 µM
GI50 (MOLT-4 leukemia): 0.485 µM
TGI (MOLT-4 leukemia): 2.02 µM
GI50 (UO-31 renal): 0.865 µM
TGI (UO-31 renal): 2.17 µM

O=C(CC(=O)N1N=C(n2ccc3ccccc32)CC1c1ccccc1)Nc1cccc(Cl)c1 (stereo not drawn)
TGI (IGROV1 ovarian): > 100 µM
TGI (MALME-3M melanoma): > 100 µM
TGI (NCI-H460 lung): > 100 µM
TGI (TK-10 renal): > 100 µM
TGI (HOP-92 NSCLC): > 100 µM
TGI (ACHN renal): > 100 µM
TGI (HOP-62 NSCLC): > 100 µM
TGI (MOLT-4 leukemia): > 100 µM
TGI (UO-31 renal): > 100 µM

Cc1ccc(-n2c3c(c4c(CN5CCCCC5)c(O)ccc42)CCc2ccccc2C3=O)cc1
GI50 (IGROV1 ovarian): 39.9 µM
TGI (IGROV1 ovarian): > 100 µM
GI50 (MALME-3M melanoma): > 100 µM
TGI (MALME-3M melanoma): > 100 µM
GI50 (NCI-H460 lung): > 100 µM
TGI (NCI-H460 lung): > 100 µM
GI50 (TK-10 renal): > 100 µM
TGI (TK-10 renal): > 100 µM
GI50 (HOP-92 NSCLC): 20 µM
TGI (HOP-92 NSCLC): 88.2 µM
GI50 (ACHN renal): > 100 µM
TGI (ACHN renal): > 100 µM
GI50 (HOP-62 NSCLC): 27.5 µM
TGI (HOP-62 NSCLC): 80.7 µM
GI50 (MOLT-4 leukemia): > 100 µM
TGI (MOLT-4 leukemia): > 100 µM
GI50 (UO-31 renal): > 100 µM
TGI (UO-31 renal): > 100 µM

CC(=O)OC1(C#N)CC2OC1C1C2N1C(=O)c1ccccc1 (stereo not drawn)
TGI (IGROV1 ovarian): > 100 µM
TGI (MALME-3M melanoma): > 100 µM
TGI (NCI-H460 lung): > 100 µM
TGI (TK-10 renal): > 100 µM
TGI (HOP-92 NSCLC): > 100 µM
TGI (ACHN renal): > 100 µM
TGI (HOP-62 NSCLC): > 100 µM
TGI (MOLT-4 leukemia): > 100 µM
TGI (UO-31 renal): > 100 µM

CCSC1(SCC)CCN(C=NC(C)(C)C)C1
TGI (IGROV1 ovarian): > 100 µM
TGI (SR leukemia): > 100 µM
TGI (MALME-3M melanoma): > 100 µM
TGI (NCI-H460 lung): > 100 µM
TGI (TK-10 renal): > 100 µM
TGI (ACHN renal): > 100 µM
TGI (HOP-62 NSCLC): > 100 µM
TGI (MOLT-4 leukemia): > 100 µM
TGI (UO-31 renal): > 100 µM

COc1ccc(/C=C/C(=O)c2sc(N)nc2C)cc1
TGI (IGROV1 ovarian): > 100 µM
TGI (MALME-3M melanoma): > 100 µM
TGI (NCI-H460 lung): > 100 µM
TGI (TK-10 renal): > 100 µM
TGI (HOP-92 NSCLC): > 100 µM
TGI (HOP-62 NSCLC): > 100 µM
TGI (MOLT-4 leukemia): > 100 µM
TGI (UO-31 renal): > 100 µM

Nc1nnc2nc(CC(=O)/C=C/c3ccccc3)c(=O)[nH]n12
TGI (IGROV1 ovarian): > 100 µM
TGI (MALME-3M melanoma): > 100 µM
TGI (NCI-H460 lung): > 100 µM
TGI (TK-10 renal): > 100 µM
TGI (HOP-92 NSCLC): > 100 µM
TGI (ACHN renal): > 100 µM
TGI (HOP-62 NSCLC): > 100 µM
TGI (MOLT-4 leukemia): > 100 µM
TGI (UO-31 renal): > 100 µM

Clc1ccc(-c2nc3c(-c4ccc(Cl)cc4)nc(-c4ccccc4)cn3c2-c2ccc(Cl)cc2)cc1
GI50 (IGROV1 ovarian): 20.5 µM
TGI (IGROV1 ovarian): > 50 µM
GI50 (MALME-3M melanoma): > 50 µM
TGI (MALME-3M melanoma): > 50 µM
GI50 (NCI-H460 lung): > 50 µM
TGI (NCI-H460 lung): > 50 µM
GI50 (TK-10 renal): 34.3 µM
TGI (TK-10 renal): > 50 µM
GI50 (HOP-92 NSCLC): 14.9 µM
TGI (HOP-92 NSCLC): 37.1 µM
GI50 (ACHN renal): > 50 µM
TGI (ACHN renal): > 50 µM
GI50 (HOP-62 NSCLC): 16 µM
TGI (HOP-62 NSCLC): > 50 µM
GI50 (MOLT-4 leukemia): > 50 µM
TGI (MOLT-4 leukemia): > 50 µM
GI50 (UO-31 renal): > 50 µM
TGI (UO-31 renal): > 50 µM

CC(C)c1cc(C(C)C)c(S(=O)(=O)NN)c(C(C)C)c1
TGI (IGROV1 ovarian): > 100 µM
TGI (SR leukemia): > 100 µM
TGI (MALME-3M melanoma): > 100 µM
TGI (NCI-H460 lung): > 100 µM
TGI (TK-10 renal): > 100 µM
TGI (HOP-92 NSCLC): > 100 µM
TGI (ACHN renal): > 100 µM
TGI (HOP-62 NSCLC): > 100 µM

CCOC(=O)CC(=O)ON(C)C(=O)Cc1ccccc1
TGI (IGROV1 ovarian): > 100 µM
TGI (SR leukemia): > 100 µM
TGI (MALME-3M melanoma): > 100 µM
TGI (NCI-H460 lung): > 100 µM
TGI (ACHN renal): > 100 µM
TGI (HOP-62 NSCLC): > 100 µM
TGI (UO-31 renal): > 100 µM

COc1ccc(/C=C2\N=C(c3ccccc3)OC2=O)c(OCc2ccccc2)c1
TGI (IGROV1 ovarian): 64.4 µM
TGI (SR leukemia): > 100 µM
TGI (MALME-3M melanoma): > 100 µM
TGI (NCI-H460 lung): > 100 µM
TGI (ACHN renal): > 100 µM
TGI (HOP-62 NSCLC): 45.2 µM
TGI (MOLT-4 leukemia): 80.6 µM
TGI (UO-31 renal): > 100 µM

C=C1C(=O)OC2CCCCC3OC3C12 (stereo not drawn)
TGI (IGROV1 ovarian): 33.4 µM
TGI (SR leukemia): 53.1 µM
TGI (MALME-3M melanoma): 23.1 µM
TGI (NCI-H460 lung): 28.3 µM
TGI (TK-10 renal): 26.7 µM
TGI (ACHN renal): 23 µM
TGI (HOP-62 NSCLC): 41.3 µM
TGI (MOLT-4 leukemia): 33.2 µM
TGI (UO-31 renal): 28.8 µM

N=C(N)n1ncc(Cl)c(Cl)c1=O
TGI (IGROV1 ovarian): 28.7 µM
TGI (MALME-3M melanoma): 4.98 µM
TGI (NCI-H460 lung): 31.4 µM
TGI (TK-10 renal): 35.3 µM
TGI (HOP-92 NSCLC): 4.42 µM
TGI (ACHN renal): 14.3 µM
TGI (MOLT-4 leukemia): 4.64 µM
TGI (UO-31 renal): 4.93 µM

CC(=O)CC(=O)CCCC(=O)Nc1ccc(Cl)cc1C
TGI (IGROV1 ovarian): > 100 µM
TGI (MALME-3M melanoma): > 100 µM
TGI (NCI-H460 lung): > 100 µM
TGI (TK-10 renal): > 100 µM
TGI (HOP-92 NSCLC): > 100 µM
TGI (ACHN renal): > 100 µM
TGI (MOLT-4 leukemia): > 100 µM
TGI (UO-31 renal): > 100 µM

CC1=C(C(=O)Nc2cccc(C(F)(F)F)c2)C(c2ccc(O)cc2)C(C(=O)Nc2cccc(C(F)(F)F)c2)=C(C)N1
TGI (IGROV1 ovarian): 89.2 µM
TGI (MALME-3M melanoma): 64.4 µM
TGI (NCI-H460 lung): 43.1 µM
TGI (TK-10 renal): 66.6 µM
TGI (HOP-92 NSCLC): 39.3 µM
TGI (ACHN renal): 96.2 µM
TGI (HOP-62 NSCLC): 45.5 µM
TGI (MOLT-4 leukemia): 47 µM
TGI (UO-31 renal): 53.5 µM

Nc1ccc2c(c1)C(=O)c1ccc(F)cc1-2
TGI (IGROV1 ovarian): > 100 µM
TGI (SR leukemia): > 100 µM
TGI (NCI-H460 lung): > 100 µM
TGI (TK-10 renal): > 100 µM
TGI (HOP-92 NSCLC): > 100 µM
TGI (ACHN renal): > 100 µM
TGI (HOP-62 NSCLC): > 100 µM
TGI (MOLT-4 leukemia): > 100 µM
TGI (UO-31 renal): > 100 µM

O=C(NCCCN1CCN(CCCNC(=O)c2cnc3ccccc3n2)CC1)c1cnc2ccccc2n1
TGI (IGROV1 ovarian): > 100 µM
TGI (MALME-3M melanoma): > 100 µM
TGI (NCI-H460 lung): > 100 µM
TGI (ACHN renal): > 100 µM
TGI (HOP-62 NSCLC): > 100 µM
TGI (MOLT-4 leukemia): > 100 µM
TGI (UO-31 renal): > 100 µM

C/C(CN1C(=O)c2ccccc2C1=O)=N\NS(=O)(=O)c1ccccc1
TGI (IGROV1 ovarian): > 100 µM
TGI (MALME-3M melanoma): > 100 µM
TGI (NCI-H460 lung): > 100 µM
TGI (TK-10 renal): > 100 µM
TGI (HOP-92 NSCLC): > 100 µM
TGI (ACHN renal): > 100 µM
TGI (HOP-62 NSCLC): > 100 µM
TGI (MOLT-4 leukemia): > 100 µM
TGI (UO-31 renal): > 100 µM

Cc1ccc2nc3c(Cl)cc(=O)cc-3sc2c1
TGI (IGROV1 ovarian): 38.1 µM
TGI (MALME-3M melanoma): 75.9 µM
TGI (NCI-H460 lung): 83.5 µM
TGI (TK-10 renal): 53.8 µM
TGI (HOP-92 NSCLC): 36.7 µM
TGI (ACHN renal): 54.4 µM
TGI (MOLT-4 leukemia): 41.5 µM
TGI (UO-31 renal): > 100 µM

CC1C2Cc3ccc(O)cc3C1(C)CCN2C (stereo not drawn)
TGI (IGROV1 ovarian): > 100 µM
TGI (SR leukemia): > 100 µM
TGI (MALME-3M melanoma): > 100 µM
TGI (NCI-H460 lung): > 100 µM
TGI (TK-10 renal): > 100 µM
TGI (ACHN renal): > 100 µM
TGI (HOP-62 NSCLC): > 100 µM
TGI (MOLT-4 leukemia): > 100 µM
TGI (UO-31 renal): > 100 µM

C/C(=N\NC(=O)CC(=O)Nc1ccc(C)cc1)c1cc2ccccc2oc1=O
TGI (IGROV1 ovarian): > 100 µM
TGI (MALME-3M melanoma): > 100 µM
TGI (NCI-H460 lung): > 100 µM
TGI (TK-10 renal): > 100 µM
TGI (ACHN renal): > 100 µM
TGI (HOP-62 NSCLC): > 100 µM
TGI (MOLT-4 leukemia): > 100 µM
TGI (UO-31 renal): > 100 µM
